From US10463764B2, “3D tissue-engineered bone marrow for personalized therapy and drug development” (Washington University, priority 2014, dated 2019)

Assays:
MM1s cells [1] = test: Drug survival of MM1s cells in mono- or multi-culture in classic 2D cultures and 3DTEBM, by flow cytometry; assay type: cell-based; conditions: Homo sapiens, MM1.S, 24 h
Procedure: MM1s-GFP cells (30×10^3 cells/well) were cultured in mono-culture or multi-culture conditions [CD138^− stromal cells-DiD (10×10^3 cells/well), HUVECs-DiD (10×10^3 cells/well), and fibronectin 100 ng/ml)] in 3DTEBM and classic 2D cultures. After 2 h gelification of 3DTEBM or adhesion in 2D cultures (cells were culture in 50 μl), 50 ul of RPMI completed media was added on top of 3DTEBM. Then, 50 μl of bortezomib (0-30 nM), carfilzomib (0, 10 nM), or melphalan (0, 1 μM) solutions were added on top of 2D cultures and 3DTEBM for 24 h. Cell proliferation assay was assessed by flow cytometry as previously described. Briefly, drug-media was removed, 3DTEBM were digested and cells of 2D cultures detached by pipetting. Effect of drug treatment in MM1s-GFP cells was measured and normalized to non-treated conditions.
Finally, the effect of increasing concentrations of bortezomib on the survival of MM1s cells grown in mono-culture or multi-culture in 3DTEBM and 2D cultures was measured.

MM1s cells [2] = test: Effect of ECM component fibronectin on growth of MM cells inside 3DTEBM, by flow cytometry; assay type: cell-based; conditions: 100 ng/ml, day 3
Procedure: For flow cytometry analysis, an internal control (MM1s-calcein violet) was added and a minimum of 5,000 events were acquired using BD FACS Aria (BD Biosciences) and DiVa v6.1.2 software. The data was analyzed using FlowJo program v10 (Ashland, Oreg.). MM cells or CD138^+ cells were identified by gating cells with a high GFP/DiO signal (excitement, 488 nm; filter, 530/30 nm); Hs5 stroma or CD138-stromal cells were identified by gating cells with a high DiD signal (excitement, 638 nm; filter, 660/20 nm); HUVECs were identified by gating cells with a high DiI signal (excitement, 488 nm; filter, 585/15 nm); and MM1s cells control were identified by gating cells with a high UV signal (excitement, 355 nm; filter, 450/50 nm). A 3DTEBM was digested with type I collagenase at 25 mg/ml for 2 h at 37° C. Classic bi-dimensional (2D) cultures were washed with PBS and removed by pipetting. The effect of cell density (5×10^3-50×10^3 cells/well) of MM1s-GFP, Hs5 stroma-DiD, CD138− stromal cells-DiD, and HUVECs-DiI on growth rate in mono-cultures at day 3 inside 3DTEBM was measured by flow cytometry. […]

`CC(C)C[C@H](NC(=O)[C@H](Cc1ccccc1)NC(=O)c1cnccn1)B(O)O` [bortezomib] was tested, and the IC50 (MM1s cells [1]; 3DTEBM mono-culture) was 15 to 20 nM, the IC50 (MM1s cells [1]; 3DTEBM multi-culture (CD138- stromal cells, HUVECs, fibronectin)) was roughly 25 nM and the IC50 (MM1s cells [1]; classic 2D mono-culture) was roughly 5 nM. It also gave an IC50 (MM1s cells [1]; classic 2D multi-culture (CD138- stromal cells, HUVECs, fibronectin)) of roughly 7 nM.

In the case of fibronectin, the “increase of growth of MM cells in 3DTEBM” value (MM1s cells [2]) is reported as “about 25%”.
